According to US20250346621A1, “ASCAROSIDE SALTS” (Ascribe Bioscience Inc., priority 2022, published 2025):

Test system: Bipolaris sorokiniana
Test: greenhouse-based plant pathogen assay: protection of wheat plants from Bipolaris sorokiniana damage
Assay type: in vivo
Conditions: two-week-old wheat plants sprayed with 1 μM, inoculated 24 h after treatment, symptoms quantified ten days after inoculation; compared with un-modified ascr #18; *P≤0.04
Experimental: The efficacy of the zinc salt of ascr #18 was compared to free ascr #18 in a greenhouse-based plant pathogen assay. Two-week-old wheat plants were sprayed with a solution containing 1 μM ascr #18, or 1 μM of the zinc salt (ascr #18)2Zn. 24 h after treatment, the plants were inoculated with spores of Bipolaris sorokiniana (causal agent of root rot and brown spot blotch). Disease symptoms were quantified ten days after inoculation by measuring the symptomatic area on the leaves.

With `CC(CCCCCCCCC(=O)[O-])OC1OC(C)C(O)CC1O.CC(CCCCCCCCC(=O)[O-])OC1OC(C)C(O)CC1O.[Zn+2]` (stereo not shown) [(ascr #18)2Zn] the “protection against pathogen damage (symptomatic area on the leaves)” value was “better protection against pathogen damage than un-modified ascr #18”.
